Values of other authors as cited in PubChem BioAssay AID1259409 (Chemical Carcinogenesis Research Information System (CCRIS), 2018).

System: rodent chemically induced tumor inhibition, incidence and multiplicity
Assay: CCRIS tumor inhibitor studies

| SMILES | tumour outcome (control, treated, inhibition, significance) (Carcinogen: 4-NITROQUINOLINE-1-OXIDE, 56-57-5, Dose [Inhibitor]: 0, 500 PPM IN DIET FOR 10 WK BEGINNING 1 WK PRIOR TO CARCINOGEN DOSE (STUDY DURATION: 32 WK), Route [Inhibitor]: ORAL, Species: RAT, Strain/Sex: F344/MALE, Target Tissue: Type of Lesion: TONGUE: CARCINOMA, Dose [Carcinogen]: 20 PPM IN DRINKING WATER FOR 8 WK, Promoter: NONE USED) | tumour outcome (control, treated, inhibition, significance) (Carcinogen: 4-NITROQUINOLINE-1-OXIDE, 56-57-5, Dose [Inhibitor]: 0, 500 PPM IN DIET FOR 10 WK BEGINNING 1 WK PRIOR TO CARCINOGEN DOSE (STUDY DURATION: 32 WK), Route [Inhibitor]: ORAL, Species: RAT, Strain/Sex: F344/MALE, Target Tissue: Type of Lesion: TONGUE: PAPILLOMA, Dose [Carcinogen]: 20 PPM IN DRINKING WATER FOR 8 WK, Promoter: NONE USED) | tumour outcome (control, treated, inhibition, significance) (Carcinogen: 4-NITROQUINOLINE-1-OXIDE, 56-57-5, Dose [Inhibitor]: 0, 500 PPM IN DIET FOR 22 WK BEGINNING 1 WK POST CARCINOGEN TREATMENT (STUDY DURATION: 32 WK), Route [Inhibitor]: ORAL, Species: RAT, Strain/Sex: F344/MALE, Target Tissue: Type of Lesion: TONGUE: CARCINOMA, Dose [Carcinogen]: 20 PPM IN DRINKING WATER FOR 8 WK, Promoter: NONE USED) | tumour outcome (control, treated, inhibition, significance) (Carcinogen: 4-NITROQUINOLINE-1-OXIDE, 56-57-5, Dose [Inhibitor]: 0, 500 PPM IN DIET FOR 22 WK BEGINNING 1 WK POST CARCINOGEN TREATMENT (STUDY DURATION: 32 WK), Route [Inhibitor]: ORAL, Species: RAT, Strain/Sex: F344/MALE, Target Tissue: Type of Lesion: TONGUE: PAPILLOMA, Dose [Carcinogen]: 20 PPM IN DRINKING WATER FOR 8 WK, Promoter: NONE USED) | tumour outcome (control, treated, inhibition, significance) (Carcinogen: 7,12-DIMETHYLBENZ[A]ANTHRACENE [57-97-6], Dose [Inhibitor]: 85 NMOL IN 0.1 ML ACETONE 2X/WK FOR 20 WK 1 HR PRIOR TO EACH PROMOTER DOSE (STUDY DURATION: 21 WK), Route [Inhibitor]: DERMAL, Species: MOUSE, Strain/Sex: ICR/FEMALE, Target Tissue: Type of Lesion: SKIN: PAPILLOMA, Dose [Carcinogen]: 390 NMOL IN 0.1 ML ACETONE ONCE (STUDY DURATION: 21 WK), Promoter: 12-O-TETRADECANOYL-13-ACETATE [16561-29-8]) |
| --- | --- | --- | --- | --- | --- |
| O=C(/C=C/c1ccccc1)c1ccccc1O | 9/15 (60%), 2/16 (13%), 78%, p<0.05 | 4/15 (27%), 1/16 (6%), 78%, not significant | 9/15 (60%), 3/16 (19%), 68%, p<0.05 | 4/15 (27%), 0/16 (0%), 100%, p<0.05 | – |
| COc1ccc(-c2oc3c(OC)c(OC)c(OC)c(OC)c3c(=O)c2OC)cc1OC | – | – | – | – | 100%, 80%, 20%, not calculated |
